Laboratory results from publication PMC3397428 (Bioorganic & medicinal chemistry, 2012).
Entries after “also recorded” stand apart in the source; their conditions may differ.

Legend:
PfDHODH = target: T1, PfDHODH (Plasmodium falciparum, UniProt Q08210); assay: DHODH inhibition, Plasmodium falciparum; assay type: biochemical
T1 sequence (Q08210 24-569): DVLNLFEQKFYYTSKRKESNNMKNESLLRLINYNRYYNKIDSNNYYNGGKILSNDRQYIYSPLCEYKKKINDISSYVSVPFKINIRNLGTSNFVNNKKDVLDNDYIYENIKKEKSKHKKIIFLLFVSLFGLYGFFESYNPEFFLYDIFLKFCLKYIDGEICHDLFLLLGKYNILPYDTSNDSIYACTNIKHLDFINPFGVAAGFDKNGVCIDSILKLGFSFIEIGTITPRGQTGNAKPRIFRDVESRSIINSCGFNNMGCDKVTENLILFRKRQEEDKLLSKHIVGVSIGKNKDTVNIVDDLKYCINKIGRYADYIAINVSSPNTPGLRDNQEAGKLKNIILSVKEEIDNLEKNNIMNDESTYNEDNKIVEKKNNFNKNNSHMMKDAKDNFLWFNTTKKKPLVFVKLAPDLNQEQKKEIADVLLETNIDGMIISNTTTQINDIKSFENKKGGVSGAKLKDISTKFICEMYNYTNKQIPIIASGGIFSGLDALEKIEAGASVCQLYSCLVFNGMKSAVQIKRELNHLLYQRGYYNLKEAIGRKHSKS

[1] = test system: B16-F10 mouse melanoma tumor cells; assay: B16-F10 syngeneic mouse melanoma model; assay type: in vivo; details: athymic mice, 35 mg/kg IP 3 × weekly (M, W, F) for two weeks
[2] = Dose-finding study in athymic mice; details: 35 mg/kg three times weekly for 4 weeks

Row | SMILES | IC50 (PfDHODH) [µM] | growth rate of primary B16-F10 tumor [1] | loss in weight in dose-finding study [2] | toxicity in dose-finding study [2]
1 | Nc1nc2c(c(Nc3ccccc3)n1)-c1ccccc1C2 [Compound 1, N^4-Phenyl-9H-indeno[2,1-d]pyrimidine-2,4-diamine] | ≥ 200 |  |  | 
2 | COc1cccc(Nc2nc(N)nc3c2-c2ccccc2C3)c1 [Compound 11, N^4-(3-Methoxyphenyl)-9H-indeno[2,1-d]pyrimidine-2,4-diamine] | ≥ 200 |  |  | 
3 | Nc1nc2c(c(Nc3ccc(Cl)cc3)n1)-c1ccccc1C2 [Compound 7, N^4-(4-Chlorophenyl)-9H-indeno[2,1-d]pyrimidine-2,4-diamine] | ≥ 200 | equipotent with the standard 21; also recorded: decreased tumor growth rate | no significant loss in weight | no apparent toxicity
4 | Nc1nc2c(c(Nc3cccc(F)c3)n1)-c1ccccc1C2 [Compound 4, N^4-(3-Fluorophenyl)-9H-indeno[2,1-d]pyrimidine-2,4-diamine] | ≥ 200 |  |  | 
5 | Nc1nc2c(c(Nc3ccc(Cl)cc3F)n1)-c1ccccc1C2 [Compound 13, N^4-(4-Chloro-2-fluorophenyl)-9H-indeno[2,1-d]pyrimidine-2,4-diamine] | ≥ 200 |  |  | 
6 | Nc1nc2c(c(Nc3cccc(Br)c3)n1)-c1ccccc1C2 [Compound 8, N^4-(3-Bromophenyl)-9H-indeno[2,1-d]pyrimidine-2,4-diamine] | ≥ 200 |  |  | 
